Source: ChEMBL document CHEMBL3046404, “The cytotoxic effects of diketopiperaizes against Leishmania donovani promastigotes and amastigotes” (Med Chem Res, 2013)
Values after ≈ are worked out from the molar mass of the structure shown.

Columns and labels:
Mus musculus [1] = test: Toxicity against BALB/c Mus musculus (mouse) assessed as blood urea level at 10 mg/kg, ip administered 2 times per week for 30 days (reference value: 29 +/- 6 mg/dl); format: organism-based; design: dose 10 mg/kg, route intraperitoneal; conditions: in vivo, 720 h
[2] = Toxicity against BALB/c Mus musculus (mouse) peritoneal macrophages assessed as concentration required for cell lysis after 48 hr; format: cell-based, Peritoneal macrophage cell; conditions: read-out: Activity
Leishmania donovani [3] = test: microbe, parasite or virus in culture; conditions: MHOH/IN/1983/AG83, 48 h
Description: Antileishmanial activity against amastigote form of Leishmania donovani MHOH/IN/1983/AG83 infected BALB/c mouse peritoneal macrophages after 48 hr by Geimsa staining method

Leishmania donovani [4] = test: Antileishmanial activity against promastigote form of Leishmania donovani MHOH/IN/1983/AG83 infected BALB/c mouse assessed as liver weight at 10 mg/kg, ip administered 1 month post-infection 2 times per week for 30 days (reference value: 1,746 +/- 56 mg); format: functional; conditions: route intraperitoneal
Mus musculus [5] = test: Toxicity against BALB/c Mus musculus (mouse) assessed as SGOT level at 10 mg/kg, ip administered 2 times per week for 30 days (reference value: 71 +/- 4 IU/l); format: organism-based; design: dose 10 mg/kg, route intraperitoneal; conditions: in vivo, 720 h
Mus musculus [6] = test: Toxicity against BALB/c Mus musculus (mouse) assessed as SGPT level at 10 mg/kg, ip administered 2 times per week for 30 days (reference value: 28 +/- 5 IU/l); format: organism-based; design: dose 10 mg/kg, route intraperitoneal; conditions: in vivo, 720 h
Leishmania donovani [7] = test: Antileishmanial activity against promastigote form of Leishmania donovani MHOH/IN/1983/AG83 after 2 hr by MTT assay; format: functional, organism-based
Leishmania donovani [8] = test: Antileishmanial activity against promastigote form of Leishmania donovani MHOH/IN/1983/AG83 infected BALB/c mouse assessed as spleen weight at 10 mg/kg, ip administered 1 month post-infection 2 times per week for 30 days (reference value: 509 +/- 25 mg); format: functional; conditions: route intraperitoneal
Leishmania donovani [9] = test: Antileishmanial activity against promastigote form of Leishmania donovani MHOH/IN/1983/AG83 infected in BALB/c mouse assessed as reduction in parasite burden in spleen at 10 mg/kg, i.p. administered 1 month post-infection 2 times per week for 30 days relative to control; format: functional; design: scale not given: the % may be the effect or the level left; conditions: route intraperitoneal
Leishmania donovani [10] = test: Antileishmanial activity against amastigote form of Leishmania donovani MHOH/IN/1983/AG83 infected BALB/c mouse peritoneal macrophages at 10 ug/ml after 48 hr by Geimsa staining method relative to control; format: functional
Leishmania donovani [11] = test: Antileishmanial activity against promastigote form of Leishmania donovani MHOH/IN/1983/AG83 infected in BALB/c mouse assessed as reduction in parasite burden in liver at 10 mg/kg, ip administered 1 month post-infection 2 times per week for 30 days relative to control; format: functional; design: scale not given: the % may be the effect or the level left; conditions: route intraperitoneal
Leishmania donovani [12] = test: Antileishmanial activity against promastigote form of Leishmania donovani MHOH/IN/1983/AG83 infected BALB/c mouse assessed as spleen weight at 250 mg/kg, ip administered 1 month post-infection 2 times per week for 30 days (reference value: 509 +/- 25 mg); format: functional, organism-based; design: dose 250 mg/kg
Leishmania donovani [13] = test: Antileishmanial activity against promastigote form of Leishmania donovani MHOH/IN/1983/AG83 infected BALB/c mouse assessed as reduction in parasite burden in spleen at 250 mg/kg, ip administered 1 month post-infection 2 times per week for 30 days relative to control; format: functional, organism-based; design: dose 250 mg/kg; scale not given: the % may be the effect or the level left
Leishmania donovani [14] = test: Antileishmanial activity against promastigote form of Leishmania donovani MHOH/IN/1983/AG83 infected BALB/c mouse assessed as reduction in parasite burden in liver at 250 mg/kg, ip administered 1 month post-infection 2 times per week for 30 days relative to control; format: functional, organism-based; design: dose 250 mg/kg; scale not given: the % may be the effect or the level left
Leishmania donovani [15] = test: Antileishmanial activity against promastigote form of Leishmania donovani MHOH/IN/1983/AG83 infected BALB/c mouse assessed as liver weight at 250 mg/kg, ip administered 1 month post-infection 2 times per week for 30 days (reference value: 1,746 +/- 56 mg); format: functional, organism-based; design: dose 250 mg/kg
Mus musculus [16] = test: Toxicity against BALB/c Mus musculus (mouse) assessed as SGOT level at 4 mg/kg, ip administered 2 times per week for 30 days (reference value: 71 +/- 4 IU/l); format: organism-based; design: dose 4 mg/kg, route intraperitoneal; conditions: in vivo, 720 h
Leishmania donovani [17] = test: Antileishmanial activity against promastigote form of Leishmania donovani MHOH/IN/1983/AG83 infected BALB/c mouse assessed as liver weight at 4 mg/kg, ip administered 1 month post-infection 2 times per week for 30 days (reference value: 1,746 +/- 56 mg); format: functional; conditions: route intraperitoneal
Mus musculus [18] = test: Toxicity against BALB/c Mus musculus (mouse) assessed as SGPT level at 4 mg/kg, ip administered 2 times per week for 30 days (reference value: 28 +/- 5 IU/l); format: organism-based; design: dose 4 mg/kg, route intraperitoneal; conditions: in vivo, 720 h
Mus musculus [19] = test: Toxicity against BALB/c Mus musculus (mouse) assessed as blood urea level at 4 mg/kg, ip administered 2 times per week for 30 days (reference value: 29 +/- 6 mg/dl); format: organism-based; design: dose 4 mg/kg, route intraperitoneal; conditions: in vivo, 720 h
Leishmania donovani [20] = test: Antileishmanial activity against promastigote form of Leishmania donovani MHOH/IN/1983/AG83 infected BALB/c mouse assessed as reduction in parasite burden in liver at 4.5 mg/kg, ip administered 1 month post-infection 2 times per week for 30 days relative to control; format: functional; design: scale not given: the % may be the effect or the level left; conditions: route intraperitoneal
Leishmania donovani [21] = test: Antileishmanial activity against promastigote form of Leishmania donovani MHOH/IN/1983/AG83 infected in BALB/c mouse assessed as reduction in parasite burden in spleen at 4.5 mg/kg, i.p. administered 1 month post-infection 2 times per week for 30 days relative to control; format: functional; design: scale not given: the % may be the effect or the level left; conditions: route intraperitoneal
Leishmania donovani [22] = test: Antileishmanial activity against promastigote form of Leishmania donovani MHOH/IN/1983/AG83 infected BALB/c mouse assessed as spleen weight at 4 mg/kg, ip administered 1 month post-infection 2 times per week for 30 days (reference value: 509 +/- 25 mg); format: functional; conditions: route intraperitoneal
[23] = Leishmania donovani, MHOH/IN/1983/AG83, 2 h, read-out: IC50

| IC50 (Leishmania donovani [3]) | Compound | Activity (Mus musculus [1]) | MCC at 48 h [2] | Activity (Mus musculus [5]) | Activity (Mus musculus [6]) | IC50 (Leishmania donovani [7]; [23]) | Activity (Leishmania donovani [8]) | other results |
| --- | --- | --- | --- | --- | --- | --- | --- | --- |
| 1.6 µg/mL (≈ 6.01 µM) | O=C1CN(c2ccccc2)C(=O)CN1c1ccccc1 | 32 mg/dL | > 30 µg/mL | 74 IU/L | 34 IU/L | 1.4 µg/mL (≈ 5.26 µM) | 166 mg | Activity (Leishmania donovani [4]): 999 mg |
| 2 µg/mL (≈ 5.71 µM) | CC(=O)c1cccc(N2CC(=O)N(c3cccc(C(C)=O)c3)CC2=O)c1 | – | > 50 µg/mL | – | – | 3.4 µg/mL (≈ 9.7 µM) | – | – |
| 0.61 µg/mL (≈ 1.82 µM) | O=C1CN(c2ccccc2Cl)C(=O)CN1c1ccccc1Cl | 30 mg/dL | > 25 µg/mL | 72 IU/L | 28 IU/L | 1.02 µg/mL (≈ 3.04 µM) | 106 mg | Activity (Leishmania donovani [9]): 71.81%; Activity (Leishmania donovani [10]): 92%; Activity (Leishmania donovani [4]): 976 mg; Activity (Leishmania donovani [11]): 80.37% |
| 1.8 µg/mL (≈ 6.12 µM) | Cc1ccc(N2CC(=O)N(c3ccc(C)cc3)CC2=O)cc1 | 34 mg/dL | > 40 µg/mL | 75 IU/L | 33 IU/L | 1.1 µg/mL (≈ 3.74 µM) | 184 mg | Activity (Leishmania donovani [4]): 1127 mg |
| 2.2 µg/mL (≈ 6.74 µM) | COc1ccc(N2CC(=O)N(c3ccc(OC)cc3)CC2=O)cc1 | – | > 60 µg/mL | – | – | 21.8 µg/mL (≈ 66.8 µM) | – | – |
| 0.53 µg/mL (≈ 1.58 µM) | O=C1CN(c2cccc(Cl)c2)C(=O)CN1c1cccc(Cl)c1 | 29 mg/dL | > 25 µg/mL | 67 IU/L | 28 IU/L | 1 µg/mL (≈ 2.98 µM) | 87 mg | Activity (Mus musculus [16]): 69 IU/L; Activity (Leishmania donovani [9]): 91.35%; Activity (Leishmania donovani [10]): 92.19%; Activity (Leishmania donovani [17]): 1134 mg; Activity (Mus musculus [18]): 29 IU/L; Activity (Mus musculus [19]): 28 mg/dL; Activity (Leishmania donovani [20]): 69.73%; Activity (Leishmania donovani [21]): 67.97%; Activity (Leishmania donovani [11]): 94.75%; Activity (Leishmania donovani [22]): 155 mg |

The remaining lines, values behind:

| Compound | IC50 (Leishmania donovani [3]) | Activity (Mus musculus [1]) | MCC at 48 h [2] | Activity (Mus musculus [5]) | Activity (Mus musculus [6]) | IC50 (Leishmania donovani [7]; [23]) | Activity (Leishmania donovani [8]) | other results |
| --- | --- | --- | --- | --- | --- | --- | --- | --- |
| COc1ccc(Cl)cc1N1CC(=O)N(c2cc(Cl)ccc2OC)CC1=O | – | – | > 100 µg/mL | – | – | – | – | IC50 (Leishmania donovani [7]): Not Active |
| O=C1CN(C2CCCCC2)C(=O)CN1C1CCCCC1 | 1.1 µg/mL (≈ 3.95 µM) | 31 mg/dL | > 50 µg/mL | 73 IU/L | 30 IU/L | 0.7 µg/mL (≈ 2.51 µM) | 139 mg | Activity (Leishmania donovani [9]): 80.95%; Activity (Leishmania donovani [10]): 84.66%; Activity (Leishmania donovani [4]): 1076 mg; Activity (Leishmania donovani [11]): 81.74% |
| O=C1CN(c2cccc(Cl)c2Cl)C(=O)CN1c1cccc(Cl)c1Cl | 4.3 µg/mL (≈ 10.6 µM) | – | > 50 µg/mL | – | – | 2.2 µg/mL (≈ 5.44 µM) | – | – |
| SODIUM ANTIMONY GLUCONATE | – | – | – | – | – | – | – | Activity (Leishmania donovani [12]): 303 mg; Activity (Leishmania donovani [13]): 60.2%; Activity (Leishmania donovani [14]): 57.7%; Activity (Leishmania donovani [15]): 1320 mg |
| N=C(N)c1ccc(OCCCCCOc2ccc(C(=N)N)cc2)cc1 [PENTAMIDINE] | 2.8 µg/mL (≈ 8.22 µM) | – | > 90 µg/mL | – | – | 2.1 µg/mL (≈ 6.17 µM) | – | – |
| O=C1CN(c2cc(Cl)ccc2Cl)C(=O)CN1c1cc(Cl)ccc1Cl | 6.6 µg/mL (≈ 16.3 µM) | – | > 60 µg/mL | – | – | 2.6 µg/mL (≈ 6.43 µM) | – | – |
| C[C@@H]1[C@H](O)[C@@H](C)/C=C/C=C/C=C/C=C/C=C/C=C/C=C/[C@H](O[C@@H]2O[C@H](C)[C@@H](O)[C@H](N)[C@@H]2O)C[C@@H]2O[C@](O)(C[C@@H](O)C[C@@H](O)[C@H](O)CC[C@@H](O)C[C@@H](O)CC(=O)O[C@H]1C)C[C@H](O)[C@H]2C(=O)O [AMPHOTERICIN B] | 0.1 µg/mL (≈ 0.108 µM) | – | > 4 µg/mL | – | – | – | – | – |
| O=C1CN(c2ccc(Cl)cc2Cl)C(=O)CN1c1ccc(Cl)cc1Cl | 6.4 µg/mL (≈ 15.8 µM) | – | > 35 µg/mL | – | – | 2.9 µg/mL (≈ 7.18 µM) | – | – |
| O=C1CN(c2c(Cl)cc(Cl)cc2Cl)C(=O)CN1c1c(Cl)cc(Cl)cc1Cl | > 10 µg/mL | – | > 70 µg/mL | – | – | 9.4 µg/mL (≈ 19.9 µM) | – | – |
